The data set in a line: Dye stability under Xenon test conditions; UV absorption after Xenon exposure. In kind it is physicochemical. To be noted: thin layer on TAC base. The procedure: Measurements are carried out at the Ci 4000 Xenon Weather-Ometer of Atlas Electric Devices Company. The extinction wavelength spectrum represents sunlight spectrum. Experiments are carried out with samples consisting of thin layers of UV absorbing complexes coated on TAC base materials, and dryed under air before Xenon radiation was started.
Solutions for coating on the TAC sheet materials are prepared by making a 5% gelatin solution of UV-gelatin in a suitable solvent (water/ethanol 50:50) for 30 minutes at a temperature of 40 C.
A fixed concentration of the UV absorbing complex was applied with a concentration of 5*10^−3 Mol/L
UV absorption of samples is measured with standard UV spectrophotometer system. UV absorption is directly correlated to the number of functional molecules in the samples after the Xenon treatment, and the results are listed in the following table.
UV absorption after Xenon radiation (in hours treatment time).

SMILES strings stand for the structures.

With `O=c1c(O)c(-c2ccc(O)c(O)c2)oc2cc(O)cc(O)c12` [Quercetin], the “UV absorption after Xenon radiation” value reads like this: (0 hours treatment time) 0.85; (40 hours treatment time) 0.53; (80 hours treatment time) 0.20; (120 hours treatment time) 0.14.

For the origin of these results see US20060204457A1, “Cosmetic uv-screen compositions and aminobutadiene-based uv-absorbing complexes therefor” (priority 2003, published 2006).
